From US5747452A, “Method of modulating tumor cell migration using fibronectin type III peptides” (La Jolla Cancer Research Foundation, priority 1995, dated 1998)

Test system: C11 CHO cells
Assay: Migration assay (in vitro wounding assay)
Type: cell-based, Chinese Hamster
Details: 50 μM for 48 hours
Description: Migration was tested by using Chinese Hamster Ovary (CHO) cells in an in vitro "wounding" assay as described previously (Giancotti and Ruoslahti, Cell 60,849(1990)). CHO cells are commercially available and have ATCC number CRL 9096. A3 is an overexpressor of the α5 β1 integrin created by cDNA transfection as described in the article cited above. C11 is a control-transfected line expressing only the endogenous CHO α5 β1. As described in Example XIV below, cells were grown in the absence or presence of 50 μM III1 -C for 48 hours, then the culture was "wounded" by removing cells from the plastic dish by scraping the dish with a plastic pipette tip. The migration of the cells into the "wound" path was monitored by photography at various times.
It is known from previous work (see Giancotti and Ruoslahti, (1990), supra) that there is a correlation between an increase in fibronectin matrix assembly and the decrease in tumorigenic phenotype. Since the polypeptides of the present invention including the recombinant polypeptides are able to modulate fibronectin matrix assembly, these proteins were tested to determine if they could modulate the tumorigenic phenotype of cells. […] As a comparison, A3 CHO cells, which do overexpress α5 β1, fibronectin receptors and are less tumorigenic, were grown in parallel. […]

Substance: III1 -C: Sequence ID No. 11; recombinant protein, residues 600-674 of human fibronectin, from pGEX-2T
- effect on cell migration: retardation of their migration
